Three molecules from US11458126B2, “DHODH inhibitor for use in treating hematologic cancers” (PTC THERAPEUTICS, INC., priority 2017, dated 2022) can be followed below.

Assay [1] deals with de novo pyrimidine nucleotide synthesis in HT1080 cells. Put plainly: 15N-glutamine tracing study: pyrimidine nucleotide synthesis metabolites by LC-MS/MS. The class given is cell-based, human. The settings on record: for ^15N-Orotate / ^15N-DHO / ^15N-UMP: cells treated 100 nm for 8 hours in presence of 15N-glutamine; for ^15N-DHO / ^15N-UMP: BLDL = Below Detection Limits. The procedure: HT1080 cells in log phase growth were seeded in 10 cm dishes (4×10^6 cells/dish) and cultured in regular DMEM supplemented with 10% fetal bovine serum (FBS), penicillin (50 IU/mL), and streptomycin (50 μg/mL). After overnight incubation, the culture medium was replenished with glutamine free DMEM containing 1 g/L glucose, 10% fetal bovine serum (FBS), penicillin (50 IU/mL), streptomycin (50 μg/mL) and 1 mM ^15N-glutamine (Sigma, Cat #: 490024). After culturing for the indicated time in the presence of compounds or vehicle control (0.5% DMSO), the cells were washed once with cold PBS (5 mL) and harvested and lysed in cold distilled H2O (0.5 mL) with −80° C. methanol (1 mL) using a plastic cell scraper. The cell lysates were then centrifuged at 10,000×g for 15 minutes at 4° C., and supernatant collected for LC-MS/MS analysis of the ^15N-labelled de novo pyrimidine synthesis metabolites.
LC-MS/MS Detection of Metabolites. Quantification of ^15N-labelled de novo pyrimidine synthesis metabolites was carried out on an Accela pump and a PAL auto-sampler coupled to a TSQ Quantum Ultra mass spectrometer. The mass spectrometer was equipped with a heated electrospray ionization source operated in negative-ion mode (Thermo Fisher Scientific, Waltham, Mass.). The ion spray voltage was set at 2500 V, capillary temperature at 350° C., vaporizer temperature at 300° C.; sheath gas pressure at 50 units and auxiliary gas pressure at 5 units. A Thermo Fisher Scientific Hypercab column (3μ, 50×2.1 mm) was used and maintained at 50° C. for metabolite separation. Mobile phase A was 10 mM NH4HCO3 in water, pH 9.4, and mobile phase B was 10 mM NH4HCO3 in ACN-water (9:1). The flow rate was set at 0.50 mL/min.

Another assay has as its target DHODH (Homo sapiens, UniProt Q02127). Nature of the assay: Pull-down with Cpd 1-linked Sepharose beads, Western blot. The class given is binding. Also noted: 1 mL of cell lysate solution (2 mg/mL protein) was added to each reaction tube; endogenous in cells. The settings on record: Competing Off (FIG. 2b). From the text:
Western Blot Analysis. […] Subsequently, the conditioned medium was harvested by mixing with equal volume of 2×SDS-PAGE sample buffer (Bio-Rad). […] Proteins in the samples were resolved on a Tris-glycine Criterion gel (Bio-Rad) and transferred onto a 0.45 μm nitrocellulose membrane. […] Antibody (C1) specific for VEGFA was purchased from Santa Cruz Biotechnologies, CA (1:200 dilution); Antibody specific for human β-actin was purchased from Abcam (1:10000 dilution); Antibody specific for V5-tag was purchased from Invitrogen (1:5000 dilution). […] Immunodetection was done using the corresponding secondary antibodies conjugated with infrared dyes or horseradish peroxide. The expression levels of proteins were detected with Odyssey (LI-COR) or using enhanced chemiluminescence (Pierce, Rockford, Ill.).
The wet Sepharose 6B was diluted with pH 11 phosphate/NaOH buffer (5 mL). […] The reaction mixture was stirred further 24 hours at 40° C.
Cells in log phase growth were washed with cold PBS once and then collected by trypsin digestion. […] Proteins in the eluted samples were identified via LC-MS/MS or western blot analysis.
On the technique in general: Immunoblotting shows a protein as a band on a membrane.

Assay [2] concerns MOLT-4 human ALL tumor cells. Put plainly: MOLT-4 human acute lymphoblastic leukemia lethality model. The assay is classed as in vivo. The settings on record: NOD/SCID mice, 0.5 mg/kg or 1 mg/kg IP once per week. The procedure:
Doxorubicin was tested at the highest dose tolerated by NOD/SCID mice.
Systemic Leukemia Lethality Model: Male NOD-SCID mice were inoculated with MOLT-4 human ALL tumor cells (1×10^7 cells in 200 μL PBS) by intravenous (IV) injection. […] The mice were dosed and observed until moribund, at which time they were euthanized. At 2- and 4-weeks post-inoculation, whole blood was obtained from 5 mice per group by retro-orbital bleeding, stained with an antibody against human CD45, and the number of CD45-positive cells was determined by FACs. Data in FIG. 5b represents % of human CD45+ from blood of each mouse; where * indicates p<0.05, one way ANOVA, with multiple comparisons vs vehicle.

Sequence of DHODH (Q02127 whole entry): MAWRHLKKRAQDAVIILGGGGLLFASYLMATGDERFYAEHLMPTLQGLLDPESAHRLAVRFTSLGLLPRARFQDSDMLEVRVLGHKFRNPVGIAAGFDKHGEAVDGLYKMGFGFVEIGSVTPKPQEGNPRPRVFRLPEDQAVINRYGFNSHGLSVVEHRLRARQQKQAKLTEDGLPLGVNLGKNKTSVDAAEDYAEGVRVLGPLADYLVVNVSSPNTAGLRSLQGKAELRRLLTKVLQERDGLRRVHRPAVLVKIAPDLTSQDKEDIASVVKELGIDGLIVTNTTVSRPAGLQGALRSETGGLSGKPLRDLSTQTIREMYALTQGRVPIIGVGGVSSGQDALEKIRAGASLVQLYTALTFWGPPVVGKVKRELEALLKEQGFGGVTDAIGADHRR

In the case of `COc1ccc([C@@H]2c3[nH]c4ccc(Cl)cc4c3CCN2C(=O)Oc2ccc(Cl)cc2)cc1` [Cpd 1 (R), 4-chlorophenyl (R)-6-chloro-1-(4-methoxyphenyl)-1,3,4,9-tetrahydro-2H-pyrido[3,4-b]indole-2-carboxylate], the “de novo pyrimidine synthesis (15N-labelled CTP, UTP and UMP)” value in assay [1] (HT1080 cells, LCMS (FIG. 1b)) is recorded as “no effect”. Moreover, in assay [1], the “^15N-Orotate” value was 4.4 ± 0.4 µM, the “^15N-DHO” value is reported as “BLDL” and the “^15N-UMP” value was 0.7 ± 0.2 µM. For the same molecule, the “competitive elution of DHODH from Cpd 1 beads by free compound” value at DHODH is reported as “not”.

Take `NC(=O)c1[nH]nc([C@@H]2O[C@H](COP(=O)(O)O)[C@@H](O)[C@H]2O)c1O` [Pyrazofurin-MP, pyrazofurin-monophosphate, reference compound]: the “increase of 15N-orotate levels” value in assay [1] (100 nm, 8 hours, vs DMSO control (Table 2 study)) is reported as roughly 160 fold. Also, the “increase of 15N-orotate compared with vehicle” value in assay [1] (another study, HT1080 cells, vs 0.5% DMSO (FIG. 1c)) is “greater than 40 fold”. For the same molecule, in assay [1], the “^15N-Orotate” value was determined as 974 ± 175 µM, the “^15N-DHO” value came out at 1.3 ± 1.1 µM and the “^15N-UMP” value is “BLDL”.

Take `COc1cccc2c1C(=O)c1c(O)c3c(c(O)c1C2=O)C[C@@](O)(C(=O)CO)C[C@@H]3O[C@H]1C[C@H](N)[C@H](O)[C@H](C)O1` [doxorubicin, reference compound]: the “survival time vs vehicle” value in assay [2] is “did not prolong survival time”.
